Where a name gives a salt, the structure may show the parent alone.
Tests used:
physchem = assay type: physicochemical; details: water
Protocol: Bei Anwendung von Ambroxol muß die Dosis 50 bis 100 mg betragen. Berücksichtigt man, daß Ambroxol nur in 1 %iger Lösung stabil ist und alle konzentrierteren Lösungen bei […] Temperaturen zur […], so zeigt dies, […] in der Praxis in einer Dosis von 5 bis 10 ml zur Anwendung kommen müßte, die völlig unrealistisch ist.

[1] = system: tracheobronchiales oder sinubronchiales Syndrom; details: inhalate in 1 %iger Emser Sole; patients who also had rhinitis needed additional cold remedies; cited from earlier work
Kaninchenauge = details: 1%-ige Ambroxol-HCL-Lösung; cited from earlier work

Nc1c(Br)cc(Br)cc1CN[C@H]1CC[C@H](O)CC1 [Ambroxol, trans-4-[(2-Amino-3,5-dibrom-benzyl)-amino]cyclohexanol]
solubility (physchem): ≤ 10000 µg/mL
Wirksamkeit bei Patienten mit tracheobronchialem oder sinubronchialem Syndrom [1]: wirksam

Nc1c(Br)cc(Br)cc1CN[C@H]1CC[C@H](O)CC1 [Ambroxol-HCL]
Reizung des Kaninchenauges (Kaninchenauge): keine Reizung
